Experimental data reported in ChEMBL document CHEMBL3352299, “Antiproliferative 4-(1,2,4-oxadiazol-5-yl)piperidine-1-carboxamides, a new tubulin inhibitor chemotype” (Bioorg Med Chem Lett, 2014).

How the values were obtained:
Format in all cases: functional
CAKI-1 = experiment: Antiproliferative activity against human CAKI-1 cells after 3 days by fluorescence assay; settings: CAKI-1, 72 h
[1] = Antiproliferative activity against human RXF393 cells after 3 days by fluorescence assay; settings: RXF 393, 72 h
SN12C = experiment: Antiproliferative activity against human SN12C cells after 3 days by fluorescence assay; settings: 72 h
TK-10 = experiment: Antiproliferative activity against human TK10 cells after 3 days by fluorescence assay; settings: TK-10, 72 h
[2] = Antiproliferative activity against human UO31 cells after 3 days by fluorescence assay; settings: UO-31, 72 h
[3] = Antiproliferative activity against human PC3 cells after 3 days by fluorescence assay; settings: PC-3, 72 h
DU-145 = experiment: Antiproliferative activity against human DU145 cells after 3 days by fluorescence assay; settings: DU-145, 72 h
MCF7 = experiment: Antiproliferative activity against human MCF7 cells after 3 days by fluorescence assay; settings: MCF7, 72 h
MDA-MB-231 = experiment: Antiproliferative activity against human MDA-MB-231 cells after 3 days by fluorescence assay; settings: MDA-MB-231, 72 h
[4] = Antiproliferative activity against human Hs 578T cells after 3 days by fluorescence assay; settings: 72 h
[5] = Antiproliferative activity against human BT549 cells after 3 days by fluorescence assay; settings: BT-549, 72 h
T47D = experiment: Antiproliferative activity against human T47D cells after 3 days by fluorescence assay; settings: 72 h
MDA-MB-468 = experiment: Antiproliferative activity against human MDA-MB-468 cells after 3 days by fluorescence assay; settings: MDA-MB-468, 72 h
CCRF-CEM = experiment: Antiproliferative activity against human CCRF-CEM cells after 3 days by fluorescence assay; settings: 72 h
HL-60(TB) = experiment: Antiproliferative activity against human HL-60(TB) cells after 3 days by fluorescence assay; settings: HL-60, 72 h
K562 [6] = experiment: Antiproliferative activity against human K562 cells after 3 days by fluorescence assay; settings: K562, 72 h
[7] = Antiproliferative activity against human MOLT4 cells after 3 days by fluorescence assay; settings: MOLT-4, 72 h
[8] = Antiproliferative activity against human RPMI8226 cells after 3 days by fluorescence assay; settings: RPMI-8226, 72 h
SR = experiment: Antiproliferative activity against human SR cells after 3 days by fluorescence assay; settings: 72 h
A549 = experiment: Antiproliferative activity against human A549 cells after 3 days by fluorescence assay; settings: A549, 72 h
[9] = Antiproliferative activity against human EKVX cells after 3 days by fluorescence assay; settings: 72 h
HOP-62 = experiment: Antiproliferative activity against human HOP62 cells after 3 days by fluorescence assay; settings: HOP-62, 72 h
[10] = Antiproliferative activity against human HOP92 cells after 3 days by fluorescence assay; settings: HOP-92, 72 h
NCI-H226 = experiment: Antiproliferative activity against human NCI-H226 cells after 3 days by fluorescence assay; settings: NCI-H226, 72 h
NCI-H23 = experiment: Antiproliferative activity against human NCI-H23 cells after 3 days by fluorescence assay; settings: NCI-H23, 72 h
NCI-H322M = experiment: Antiproliferative activity against human NCI-H322M cells after 3 days by fluorescence assay; settings: 72 h
NCI-H460 = experiment: Antiproliferative activity against human NCI-H460 cells after 3 days by fluorescence assay; settings: NCI-H460, 72 h
NCI-H522 = experiment: Antiproliferative activity against human NCI-H522 cells after 3 days by fluorescence assay; settings: NCI-H522, 72 h
[11] = Antiproliferative activity against human COLO205 cells after 3 days by fluorescence assay; settings: COLO 205, 72 h
[12] = Antiproliferative activity against human HCC2998 cells after 3 days by fluorescence assay; settings: HCC 2998, 72 h
[13] = Antiproliferative activity against human HCT116 cells after 3 days by fluorescence assay; settings: HCT-116, 72 h
[14] = Antiproliferative activity against human HCT15 cells after 3 days by fluorescence assay; settings: HCT-15, 72 h
HT-29 = experiment: Antiproliferative activity against human HT-29 cells after 3 days by fluorescence assay; settings: HT-29, 72 h
KM12 = experiment: Antiproliferative activity against human KM12 cells after 3 days by fluorescence assay; settings: KM12, 72 h
SW-620 = experiment: Antiproliferative activity against human SW620 cells after 3 days by fluorescence assay; settings: SW-620, 72 h
SF-268 = experiment: Antiproliferative activity against human SF268 cells after 3 days by fluorescence assay; settings: SF-268, 72 h
[15] = Antiproliferative activity against human SF295 cells after 3 days by fluorescence assay; settings: SF-295, 72 h
[16] = Antiproliferative activity against human SF539 cells after 3 days by fluorescence assay; settings: SF-539, 72 h
SNB-19 = experiment: Antiproliferative activity against human SNB19 cells after 3 days by fluorescence assay; settings: SNB-19, 72 h
SNB-75 = experiment: Antiproliferative activity against human SNB75 cells after 3 days by fluorescence assay; settings: SNB-75, 72 h
U-251 = experiment: Antiproliferative activity against human U251 cells after 3 days by fluorescence assay; settings: U-251, 72 h
[17] = Antiproliferative activity against human LOXIMVI cells after 3 days by fluorescence assay; settings: LOX IMVI, 72 h
Malme-3M = experiment: Antiproliferative activity against human MALME-3M cells after 3 days by fluorescence assay; settings: 72 h
M14 = experiment: Antiproliferative activity against human M14 cells after 3 days by fluorescence assay; settings: M14, 72 h
MDA-MB-435 = experiment: Antiproliferative activity against human MDA-MB-435 cells after 3 days by fluorescence assay; settings: MDA-MB-435, 72 h
SK-MEL-2 = experiment: Antiproliferative activity against human SK-MEL-2 cells after 3 days by fluorescence assay; settings: SK-MEL-2, 72 h
SK-MEL-28 = experiment: Antiproliferative activity against human SK-MEL-28 cells after 3 days by fluorescence assay; settings: SK-MEL-28, 72 h
SK-MEL-5 = experiment: Antiproliferative activity against human SK-MEL-5 cells after 3 days by fluorescence assay; settings: SK-MEL-5, 72 h
[18] = Antiproliferative activity against human UACC257 cells after 3 days by fluorescence assay; settings: UACC-257, 72 h
[19] = Antiproliferative activity against human UACC62 cells after 3 days by fluorescence assay; settings: UACC-62, 72 h
IGROV-1 = experiment: Antiproliferative activity against human IGROV1 cells after 3 days by fluorescence assay; settings: IGROV-1, 72 h
[20] = Antiproliferative activity against human OVCAR3 cells after 3 days by fluorescence assay; settings: OVCAR-3, 72 h
[21] = Antiproliferative activity against human OVCAR4 cells after 3 days by fluorescence assay; settings: OVCAR-4, 72 h
[22] = Antiproliferative activity against human OVCAR5 cells after 3 days by fluorescence assay; settings: OVCAR-5, 72 h
[23] = Antiproliferative activity against human OVCAR8 cells after 3 days by fluorescence assay; settings: OVCAR-8, 72 h
[24] = Antiproliferative activity against human NCI-ADR-RES cells after 3 days by fluorescence assay; settings: 72 h
[25] = Antiproliferative activity against human SKOV3 cells after 3 days by fluorescence assay; settings: SK-OV-3, 72 h
786-0 = experiment: Antiproliferative activity against human 786-0 cells after 3 days by fluorescence assay; settings: 786-0, 72 h
A498 = experiment: Antiproliferative activity against human A498 cells after 3 days by fluorescence assay; settings: A498, 72 h
ACHN = experiment: Antiproliferative activity against human ACHN cells after 3 days by fluorescence assay; settings: 72 h
K562 [26] = experiment: Induction of mitotic arrest in human K562 cells assessed as mitotic indices at 100 uM by light microscopy

COc1cccc(-c2noc(Nc3ccc(C)cc3)n2)c1OC gave a GI50 (CAKI-1) of 3160 nM, a GI50 [1] of 1320 nM and a GI50 (SN12C) of 6030 nM. It also gave a GI50 (TK-10) of 4470 nM, a GI50 [2] of 5370 nM and a GI50 [3] of 3800 nM. For the same molecule, the GI50 (DU-145) was 3160 nM, the GI50 (MCF7) was 1580 nM and the GI50 (MDA-MB-231) was 10700 nM. For the same molecule, the GI50 [4] was 3470 nM, the GI50 [5] was 6170 nM and the GI50 (T47D) was 3630 nM. It also gave a GI50 (MDA-MB-468) of 1100 nM, a GI50 (CCRF-CEM) of 2340 nM and a GI50 (HL-60(TB)) of 676 nM. It also gave a GI50 (K562 [6]) of 245 nM, a GI50 [7] of 4680 nM and a GI50 [8] of 2950 nM. For the same molecule, the GI50 (SR) was 234 nM, the GI50 (A549) was 3160 nM and the GI50 [9] was 5500 nM. It also gave a GI50 (HOP-62) of 2290 nM, a GI50 [10] of 3890 nM and a GI50 (NCI-H226) of 7760 nM. The GI50 (NCI-H23) was 1740 nM, the GI50 (NCI-H322M) was 5130 nM and the GI50 (NCI-H460) was 2090 nM. It also gave a GI50 (NCI-H522) of 891 nM, a GI50 [11] of 2570 nM and a GI50 [12] of 3630 nM. The GI50 [13] was 1150 nM, the GI50 [14] was 1780 nM and the GI50 (HT-29) was 525 nM. It also gave a GI50 (KM12) of 1000 nM, a GI50 (SW-620) of 603 nM and a GI50 (SF-268) of 4790 nM. The GI50 [15] was 1100 nM, the GI50 [16] was 1200 nM and the GI50 (SNB-19) was 3800 nM. It also gave a GI50 (SNB-75) of 1910 nM, a GI50 (U-251) of 3720 nM and a GI50 [17] of 3090 nM. It also gave a GI50 (Malme-3M) of 1740 nM, a GI50 (M14) of 1350 nM and a GI50 (MDA-MB-435) of 219 nM. For the same molecule, the GI50 (SK-MEL-2) was 2290 nM, the GI50 (SK-MEL-28) was 2340 nM and the GI50 (SK-MEL-5) was 3090 nM. For the same molecule, the GI50 [18] was 2820 nM, the GI50 [19] was 2880 nM and the GI50 (IGROV-1) was 4790 nM. For the same molecule, the GI50 [20] was 1150 nM, the GI50 [21] was 6310 nM and the GI50 [22] was 11200 nM. It also gave a GI50 [23] of 3980 nM, a GI50 [24] of 562 nM and a GI50 [25] of 2880 nM. The GI50 (786-0) was 4790 nM, the GI50 (A498) was 2400 nM and the GI50 (ACHN) was 7080 nM.

With COc1ccc(/C=C\c2cc(OC)c(OC)c(OC)c2)cc1O [COMBRETASTATIN A4] the Activity (K562 [26]) was 82%.
